Data set [1] in a line: Acute toxicity (DL50) in the mouse. It is filed as in vivo. To be noted: iv (Table 1); for LD50: in vivo, read-out: DL50 value. The source says:
*1 DL50 in the mouse mg/kg iv.
Examples of differences between toxicity (DL50 in
the mouse) by intravenous administration and oral
administration in mg/kg. Variation in therapeutic

Data set [2] concerns gastric secretion. As to the kind of experiment: Anti-secretive activity in the rat with lig. pylorus, iv. The data set is classed as in vivo.
The subject of data set [3] is gastric secretion. Description: Anti-secretive activity in the rat by gastric stimulus, oral. To be noted: oral (Table 1); for ED50: read-out: Activity B: anti-secretive activity ED50. The data set is classed as in vivo.
Procedure: *3 Anti-secretive activity in the rat by gastric stimulus, ED50 mg/k
Data set [4] has as its system transit through the stomach and intestine. Description: Anti-spastic activity, vegetable carbon (charcoal) test, rate of transit through the stomach and intestine. It is filed as in vivo, mice. To be noted: for ED50: Mus musculus, 2 h; for Ratio 3/2: anti-secretive ED50 / anti-spastic ED50 (Table 3); for Antispastic activity ED50: 120 min. The procedure: Particularly marked is the anti-spastic activity which the present compounds exercise on the entire digestive system. Measured in the mouse, using the vegetable carbon test (rate of transit through the stomach and intestine), this activity is in some cases comparatively greater than the anti-secretive activity (Table 3).
(*)The antispastic activity is measured in mice of an average weight of […]
± 3 g by administering a suspension of charcoal in gum arabic and
checking after two hours whether the charcoal has reached the initial
portion of the colon. In non-treated subjects the charcoal reaches this
transit of the charcoal. Evaluation of the results is effected as
ED50 in mg/kg body weight of the animal, i.e., the dose at which the […]

Data set [5] relates to gastric lesions from Indomethacin. Description: Protective activity against gastric lesions due to Indomethacin. The data set is classed as in vivo, rats. To be noted: oral; for Protective activity ED50 / ED50: Indomethacin 16 mg/kg orally; for Protective activity ED50: 240 min; for ED50: Rattus norvegicus, po, 4 h, read-out: Protective activity ED50. The procedure:
The activity is defined as the dose in mg/kg of body weight to the animal, which prevents in 50% of the treated subjects arising of lesions due to Indomenthacin.
The protective preparations are administered orally in aqueous suspension.

For data set [6], the system named is gastric secretion. As to the kind of experiment: Comparison of antisecretive activity, rats with tied pylorus, oral aqueous suspension. The data set is classed as in vivo. To be noted: oral; for ED50: Rattus norvegicus, po, read-out: Antisecretive activity (dose which reduces the gastric secretion by 50%). The procedure: (*)The antisecretive activity is defined as the dose in mg/kg of body
weight of the animal, which reduces the gastric secretion by 50%. The
evaluation is effected by considering the decrease in quantity of secrete
gastric juice as compared with controls. Rats of an average weight of 200
± 20 grams are employed of which the lower part of the stomach at the
level of the pylorus is tied to collect the gastric juice during the
indicated periods. The preparations are administered orally in the form o

A further data set in a line: Solubility. The data set is classed as physicochemical.
The mark [7] stands for this setting: Rattus norvegicus, iv, compared with anti-spastic activity (Table 3), read-out: Anti-secretive activity ED50.
Setting [8] is: rat with lig. pylorus, iv (Table 1), read-out: Activity A: anti-secretive activity ED50.
Where [9] appears, read: mouse, vegetable carbon test (Table 3), read-out: Anti-spastic activity ED50.
Setting [10] is: charcoal after two hours, orally (later Table 3).
[11] abbreviates: po, charcoal after two hours, orally (later Table 3), read-out: Antispastic activity ED50.
[12] abbreviates: Rattus norvegicus, iv, read-out: Activity A: anti-secretive activity ED50.

One may read the solubility as how much of the substance goes into solution per volume. A higher solubility goes with a readily soluble substance.

Where a name gives a salt, the structure may show the parent alone. Read-outs that look alike come from different tables or passages of the source.

On to `O=C(O)Cc1ccc(NC(=O)[C@H](Cc2c[nH]c3ccccc23)NC(=O)c2ccccc2)cc1` [Ex.41 (CR421), N-benzoyl-L-tryptophyl-p-aminophenylacetic acid], for which the LD50 in data set [1] is 1000 mg/kg. The ED50 was determined as 322 mg/kg in the data set with gastric secretion [2] (setting [7]), 322 mg/kg in the data set on gastric secretion [2] (setting [8]), 186 mg/kg in the data set on gastric secretion [3] and 170 mg/kg in data set [4] (setting [9]). Also, in data set [4], the “Ratio 3/2” value worked out at 2.0.
For `[OH][Al]([OH])[OH]` [Aluminium hydroxide, reference compound], in data set [5] (136mg/kg), the Protective activity result was “inactive”.
As to `O=C(N[C@@H](Cc1c[nH]c2ccccc12)C(=O)O)OCc1ccccc1Cl` [Ex. 3 (CR460), N-o-chloro-carbobenzoxy-L-tryptophane], in data set [1] (iv), the LD50 is 640 mg/kg. Moreover, the ED50 with gastric secretion [2] (setting [7]) worked out at 118 mg/kg; with gastric secretion [2] (setting [8]), 118 mg/kg; in the data set with gastric secretion [3], 267 mg/kg; in data set [4] (setting [9]) it was 58 mg/kg. Moreover, the “Ratio 3/2” value in data set [4] turned out to be 2.0.
Turning to `Cc1ccc(C(=O)N[C@@H](Cc2c[nH]c3ccccc23)C(=O)O)cc1` [CR 510 - Calcium salt], in data set [4] (setting [10]), the “Antispastic activity ED50” value worked out at 725 mg/kg. Besides, the “Antisecretive activity (dose which reduces the gastric secretion by 50%)” value in the data set with gastric secretion [6] (2.5 hrs, 150 min) was determined as 602 mg/kg; with gastric secretion [6] (5 hrs, 300 min), 574 mg/kg; with gastric secretion [6] (10 hrs, 600 min), 521 mg/kg; in the data set on gastric secretion [6] (15 hrs, 900 min) it was 666 mg/kg. In data set [5], the “Protective activity ED50” value came out at 390 mg/kg/os.
In the case of `O=C(N[C@@H](Cc1c[nH]c2ccccc12)C(=O)O)OCc1ccc([N+](=O)[O-])cc1` [Ex.12 (CR438), N-p-nitro-carbobenzoxy-L-tryptophane], the LD50 in data set [1] (iv) is 700 mg/kg. Moreover, the ED50 in the data set with gastric secretion [2] (setting [8]) was 267 mg/kg; in the data set with gastric secretion [3] it was 195 mg/kg; in data set [4] (setting [11]), 870 mg/kg; in the data set on gastric secretion [6] (2.5 h, 2.5 hrs), 475 mg/kg; in the data set on gastric secretion [6] (5 h, 5 hrs), 560 mg/kg; in the data set with gastric secretion [6] (10 h, 10 hrs), 980 mg/kg. Further, the ED50 in the data set with gastric secretion [6] (15 h, 15 hrs) was over 1500 mg/kg; in data set [5], 990 mg/kg.
Turning to `O=C(N[C@@H](Cc1c[nH]c2ccccc12)C(=O)O)c1ccc(F)cc1` [Ex.25 (CR506), N-p-fluoro-benzoyl-L-tryptophane], in data set [1], the LD50 stood at 655 mg/kg. The ED50 in the data set on gastric secretion [2] (setting [12]) came to 223 mg/kg; in the data set with gastric secretion [3], 295 mg/kg.
On to `O=C(N[C@@H](Cc1c[nH]c2ccccc12)C(=O)O)OCc1ccc(C(F)(F)F)cc1` [Ex.11 (CR515), N-p-trifluoromethyl-carbobenzoxy-L-tryptophane], for which, in data set [1] (iv), the LD50 stood at 175 mg/kg. Also, the results for the ED50 in the data set with gastric secretion [2] (setting [12]) and with gastric secretion [3] were 112 mg/kg and 92 mg/kg, respectively.
For the molecule `O=C(N[C@@H](Cc1c[nH]c2ccccc12)C(=O)[O-])OCc1ccc(Cl)cc1.[Na+]`, the Solubility in acetone entry in “Solubility” (acetone) is on record as “Highly soluble”. For the same molecule, the Solubility in ethanol result in “Solubility” (ethanol) was “Highly soluble”. The Solubility in methanol entry in “Solubility” (methanol) was “Highly soluble”. In the data set “Solubility” (water), this molecule yielded a solubility of about 50 mg/mL.
As to `O=C(N[C@@H](Cc1c[nH]c2ccccc12)C(=O)Nc1ccc(C(=O)O)cc1)OCc1ccccc1` [Ex.43 (CR422), N-Carbobenzoxy-L-tryptophyl-p-aminobenzoic acid], the LD50 in data set [1] (iv) amounted to 460 mg/kg. Besides, the ED50 with gastric secretion [2] (setting [8]) came to 321 mg/kg; in the data set with gastric secretion [3], 180 mg/kg.
In data set [1], “N-p-bromobenzoyl-L-tryptophyl-phenylacetic acid [Ex.45 (CR511)]” yielded a DL50 value of 690 mg/kg. In the data set with gastric secretion [2] (rat with lig. pylorus, iv (Table 1)), the “Activity A: anti-secretive activity ED50” value is listed as 246 mg/kg. Also, the “Activity B: anti-secretive activity ED50” value with gastric secretion [3] is 281 mg/k.
For the molecule `O=C([O-])[O-].[Ca+2]` [Calcium carbonate, reference compound], in data set [5] (140mg/kg), the Protective activity entry was “inactive”.
For `O=C(N[C@@H](Cc1c[nH]c2ccccc12)C(=O)O)c1ccc(C(F)(F)F)cc1` [Ex.20 (CR505), N-p-trifluoromethyl-benzoyl-L-tryptophane], in data set [1], the LD50 stood at 210 mg/kg. Moreover, the ED50 was found to be 160 mg/kg in the data set with gastric secretion [2] (setting [12]) and 110 mg/kg with gastric secretion [3].
On to `Cc1ccc(COC(=O)N[C@@H](Cc2c[nH]c3ccccc23)C(=O)O)cc1Cl` [Ex.17 (CR497), N-(3-chloro-4-methyl)-carbobenzoxy-L-tryptophane], for which the LD50 in data set [1] (iv) is 190 mg/kg. The ED50 came out at 231 mg/kg with gastric secretion [2] (setting [12]) and 196 mg/kg in the data set with gastric secretion [3].
Regarding `O=C(N[C@@H](Cc1c[nH]c2ccccc12)C(=O)O)OCc1ccc([N+](=O)[O-])cc1` [CR 438 - Calcium salt], the “Antispastic activity ED50” value in data set [4] (setting [10]) is over 1000 mg/kg. Further, the “Antisecretive activity (dose which reduces the gastric secretion by 50%)” value is listed as 810 mg/kg in the data set on gastric secretion [6] (2.5 hrs, 150 min); 780 mg/kg in the data set with gastric secretion [6] (5 hrs, 300 min); 972 mg/kg in the data set with gastric secretion [6] (10 hrs, 600 min). Besides, the “Protective activity ED50” value in data set [5] was over 1500 mg/kg/os.
On to `O=C(N[C@@H](Cc1c[nH]c2ccccc12)C(=O)O)c1ccccc1Cl` [Ex.50 (CR617), N-o-chlorobenzoyl-L-tryptophane], for which the LD50 in data set [1] was 1270 mg/kg. The ED50 with gastric secretion [2] (setting [7]) worked out at 299 mg/kg; in the data set on gastric secretion [2] (setting [8]) it was 299 mg/kg; in the data set with gastric secretion [3] it was 255 mg/kg; in data set [4] (setting [9]) it was 300 mg/kg. Moreover, the “Ratio 3/2” value in data set [4] amounted to 1.
On to `O=C(N[C@H](Cc1c[nH]c2ccccc12)C(=O)O)OCc1ccc(Cl)cc1` [Ex. 5 (CR630), N-p-chloro-carbobenzoxy-D-tryptophane], for which the LD50 in data set [1] (iv) is 260 mg/kg. The values for the ED50 with gastric secretion [2] (setting [12]) and in the data set on gastric secretion [3] were 142 mg/kg and 107 mg/kg, respectively.
For `CCOC(=O)c1ccc(NC(=O)[C@H](Cc2c[nH]c3ccccc23)NC(=O)c2ccccc2)cc1` [Ex.37 (CR402), Ethyl-N-benzoyl-L-tryptophyl-p-aminobenzoate], the LD50 in data set [1] worked out at 1000 mg/kg. Moreover, the ED50 was 310 mg/kg with gastric secretion [2] (setting [8]) and 460 mg/kg in the data set with gastric secretion [3].
Turning to `O=C(N[C@@H](Cc1c[nH]c2ccccc12)C(=O)O)OCc1ccc(Br)cc1` [CR 451 - Calcium salt], the “Antispastic activity ED50” value in data set [4] (setting [10]) is given as 393 mg/kg. Further, the “Antisecretive activity (dose which reduces the gastric secretion by 50%)” value in the data set with gastric secretion [6] (2.5 hrs, 150 min) came to 233 mg/kg; in the data set with gastric secretion [6] (5 hrs, 300 min), 220 mg/kg; in the data set on gastric secretion [6] (10 hrs, 600 min) it was 337 mg/kg; in the data set with gastric secretion [6] (15 hrs, 900 min) it was 580 mg/kg. The “Protective activity ED50” value in data set [5] is on record as 392 mg/kg/os.
In the case of `Nc1ccc(C(=O)N[C@@H](Cc2c[nH]c3ccccc23)C(=O)O)cc1` [Ex.28 (CR504), N-p-amino-benzoyl-L-tryptophane], the LD50 in data set [1] amounted to 1670 mg/kg. For the same molecule, the ED50 in the data set with gastric secretion [2] (setting [8]) is 960 mg/kg; with gastric secretion [3] it was 205 mg/kg; in data set [4] (setting [11]), over 1000 mg/kg; in the data set with gastric secretion [6] (2.5 h, 2.5 hrs), 1080 mg/kg; with gastric secretion [6] (5 h, 5 hrs), 1090 mg/kg; in the data set on gastric secretion [6] (10 h, 10 hrs), 1490 mg/kg. Further, the ED50 in the data set with gastric secretion [6] (15 h, 15 hrs) was over 2000 mg/kg; in data set [5], over 1500 mg/kg.
Take `COc1ccc(C(=O)N[C@@H](Cc2c[nH]c3ccccc23)C(=O)O)cc1` [Ex.26 (CR507), N-p-methoxy-benzoyl-L-tryptophane]: in data set [1], the LD50 came to 1000 mg/kg. The ED50 in the data set on gastric secretion [2] (setting [8]) was determined as 437 mg/kg; with gastric secretion [3], 494 mg/kg.
As for `O=C(N[C@@H](Cc1c[nH]c2ccccc12)C(=O)O)OCc1c(Cl)cccc1Cl` [Ex.14 (CR495), N-(2,6-dichloro)-carbobenzoxy-L-tryptophane], the LD50 in data set [1] (iv) worked out at 268 mg/kg. Also, the ED50 in the data set with gastric secretion [2] (setting [8]) stood at 132 mg/kg; with gastric secretion [3] it was 108 mg/kg.

These data come from patent US4000297A, “N-p-chlorobenzoyl tryptophane, salts and compositions thereof” (priority 1971, dated 1976).
